Results on five compounds are retold here after patent US20100029604A1, “ANTIBACTERIAL COMBINATION AND ITS USE” (priority 2007, published 2010).

Broadly, the MIC is the least concentration at which growth counts as inhibited. As a reminder, the IC50 is the concentration at which inhibition is half-maximal. Low readings indicate inhibition by little substance, high ones a need for much substance.

Each structure is given as a SMILES string. Converted amounts (≈) assume the structure as drawn. Read-outs that look alike come from different tables or passages of the source.

In assay [1] the test system is M. catarrhalis BRO-2. As to the kind of experiment: Synergy MIC, inhibitor at 4 μg/mL (Example 3). Format: cell-based, Moraxella catarrhalis. Conditions: β-lactamase BRO-2 (Table 3 r18), inhibitor constant 4 μg/mL. As to the method:
(§1) Stock solutions of the test compounds and control antibiotics were prepared in distilled water according to the NCCLS guidelines [Methods for dilution antimicrobial tests for bacteria that grow aerobically. NCCLS document M7-A5; 2000; vol. 19. National Committee for Clinical Laboratory Standards, Villanova, Pa.]. All drug weights were corrected for salt forms and refer to the pure drug substance.
(§2) All tested strains and Clinical isolates were either purchased from the American Type Culture Collection (ATCC), or from the in-house company culture collection.
(§3) Stock cultures were prepared from broth cultures grown at 35° C. for 18-22 h without agitation and subsequent addition of 5% DMSO (v/v, final concentration) as cryoprotectant and stored frozen in liquid nitrogen. Mueller-Hinton II broth (MHBII) (BBL Cockeysville, Md.) was used for the testing procedure.
(§4) The in vitro activities of the antibiotics were determined by the broth microdilution method and agar dilution technique as recommended by CLSI guidelines. The MIC experiments were performed in duplicate in 96-well microtiter plates using MHB. Serial twofold dilutions of each antibiotic either alone or in combination with a constant amount (4 μg/mL) of a β-lactamase inhibitor were prepared in MHBII broth. A sterile pipette tip was used to mix the contents of each well (one tip was used going from the low to the high concentration in the same column). The bacterial suspension with final inoculum 10^5 CFU/mL was transferred to the test medium containing the antibacterial substances by a multipoint inoculator (Dynatech, Chantilly, Va., USA). The plates were then incubated at 35° C. for 24 h.
(§5) Representative compound of Formula (I) was evaluated against the serine-based Class A β-lactamases including TEM-type, SHV-type extended spectrum β-lactamases (ESBL) and various non-ESBL enzymes of enterobacteriaceae as well as BRO-type enzymes of Moraxella catarrhalis and penicillinases of Staphylococcus aureus.

Assay [2] concerns E. coli TEM-3. The format is cell-based. Particulars: β-lactamase TEM-3 (Table 3 r16), inhibitor constant 4 μg/mL. As to the method:
as §1, §2, §3, §4, §5

In assay [3] the test system is E. coli TEM-1. The format is cell-based. Conditions: β-lactamase TEM-1, first listed (Table 3 r14), inhibitor constant 4 μg/mL. As to the method: as §1, §2, §3, §4, §5
Assay [4] deals with E. coli ESBL. As to the kind of experiment: Synergy MIC, inhibitor at 4 μg/mL (Example 3). The format is cell-based. Particulars: first listed (Table 3 r21), inhibitor constant 4 μg/mL. Here is the method:
as §1, §2, §3, §4, §5

For assay [5], the system named is K. oxytoca ESBL. The assay is described as follows: Synergy MIC, inhibitor at 4 μg/mL (Example 3). The format is cell-based. Particulars: ESBL (Table 3 r26), inhibitor constant 4 μg/mL. Here is the method: as §1, §2, §3, §4, §5
Assay [6] relates to E. coli SHV-3. As to the kind of experiment: Synergy MIC, inhibitor at 4 μg/mL (Example 3). Format: cell-based. Conditions: β-lactamase SHV-3 (Table 3 r9), inhibitor constant 4 μg/mL. As to the method: as §1, §2, §3, §4, §5
The subject of assay [7] is C. freundii SHV-5. As to the kind of experiment: Synergy MIC, inhibitor at 4 μg/mL (Example 3). Format: cell-based. Particulars: β-lactamase SHV-5 (Table 3 r10), inhibitor constant 4 μg/mL. Here is the method: as §1, §2, §3, §4, §5
In assay [8] the test system is E. cloacae SHV-12. As to the kind of experiment: Synergy MIC, inhibitor at 4 μg/mL (Example 3). Conditions: β-lactamase SHV-12 (Table 3 r11), inhibitor constant 4 μg/mL. Format: cell-based. Here is the method:
as §1, §2, §3, §4, §5

Assay [9] relates to E. coli SHV-3. As to the kind of experiment: Synergy MIC, inhibitor at 4 μg/mL (Example 4). The format is cell-based. Conditions: SHV-3, class A, inhibitor constant 4 μg/mL.
Assay [10] relates to K. pneumoniae SHV-18. The assay is described as follows: Synergy MIC, inhibitor at 4 μg/mL (Example 4). The format is cell-based. Particulars: SHV-18, class A, inhibitor constant 4 μg/mL.
Assay [11] relates to Klebsiella oxytoca ATCC 51983. The assay is described as follows: MIC broth microdilution (Example 2). Particulars: ATCC51983. (In general: Broth dilution looks for growth in wells or tubes with falling amounts of substance.)
Assay [12] deals with E. coli TEM-1. The format is cell-based. Particulars: TEM-1, class A, inhibitor constant 4 μg/mL.
For assay [13], the system named is C. freundii SHV-5. The assay is described as follows: Synergy MIC, inhibitor at 4 μg/mL (Example 4). Format: cell-based. Conditions: SHV-5, class A, inhibitor constant 4 μg/mL.
Assay [14] concerns Klebsiella pneumoniae ATCC 700603. As to the kind of experiment: MIC broth microdilution (Example 2). Conditions: Klebsiella pneumoniae ATCC 700603 producing SHV-18.
Assay [15] has as its system C. freundii AmpC. The assay is described as follows: Synergy MIC, inhibitor at 4 μg/mL (Example 4). The format is cell-based, Citrobacter freundii. Particulars: class C, inhibitor constant 4 μg/mL. As to the method:
as §4
(§6) Following procedures identical to those described in Example 3, representative compound of Formula (I) was tested for its ability to enhance antibiotic efficacy against Class C β-lactamase positive bacterial strains that are highly resistant to β-lactam antibiotics. Class C enzymes included AmpC β-lactamases of Enterobacter Cloacae and Citrobacter freundii.

Assay [16] concerns E. coli SHV-5. The assay is described as follows: Synergy MIC, inhibitor at 4 μg/mL (Example 4). Format: cell-based. Particulars: SHV-5, class A, inhibitor constant 4 μg/mL.
For assay [17], the system named is E. coli TEM-2. Format: cell-based. Particulars: TEM-2, class A, inhibitor constant 4 μg/mL.
Assay [18] has as its system E. cloacae AmpC. The assay is described as follows: Synergy MIC, inhibitor at 4 μg/mL (Example 4). The format is cell-based, Enterobacter Cloacae. Particulars: class C, inhibitor constant 4 μg/mL. As to the method:
as §4, §6

In assay [19] the test system is M. catarrhalis BRO-1. As to the kind of experiment: Synergy MIC, inhibitor at 4 μg/mL (Example 3). The format is cell-based, Moraxella catarrhalis. Conditions: BRO-1 β-lactamases of M. catarrhalis. As to the method:
as §1, §2, §3, §4, §5

Assay [20] has as its system Class C β-lactamase (AmpC) producing strains. As to the kind of experiment: Synergy MIC, Class C strains of Example 4. Format: cell-based. Conditions: all combinations used. Here is the method: as §4, §6
Assay [21] deals with SHV-1 (Escherichia coli, UniProt P0AD63). The assay is described as follows: IC50 determination, nitrocefin hydrolysis. Format: biochemical, E. coli. Conditions: Class A β-lactamase, 10 min pre-incubation at 37° C. As to the method: (§7) A standard test for the production of βlactamase involves use of the chromogenic cephalosporin, nitrocefin.
(§8) Homogeneously purified Class A β-lactamases TEM-1 and SHV-1 from E. coli and Class C enzyme AmpC from Enterobacter Cloaca were employed in the assay.
(§9) Compounds were prepared as 50 mM stocks in DMSO and diluted with buffer P1 (50 mM phosphate, pH 7) to a final concentration of 10% DMSO. All further dilutions were done using P2 (P1 with 10% DMSO). Enzyme and compound dilutions were pre-incubated for 10 min at 37° C. and the reaction started with the addition of pre-warmed (37° C.) nitrocefin (reporter substrate) at a final concentration of […]. The change in absorption at 490 nm was followed at 37° C. for 10 min at 30 sec intervals in a SPECTRAMAX 384 PLUS microplate reader (Molecular Devices, Sunnyvale, Calif.) using 96-well plates. The initial rate was determined and IC50 values were calculated using non-linear regression and sigmoidal dose response analysis with the PRISM 4.0 software (Graphpad Software Inc., San Diego, Calif.). IC50 data is expressed as μM and was calculated from at least two independent experiments.

In assay [22] the target is TEM-1 (Escherichia coli, UniProt P62593). The assay is described as follows: IC50 determination, nitrocefin hydrolysis. The format is biochemical, E. coli. Particulars: Class A β-lactamase, 10 min pre-incubation at 37° C. As to the method:
as §7, §8, §9

In assay [23] the test system is S. aureus PC. The assay is described as follows: Synergy MIC, inhibitor at 4 μg/mL (Example 3). Conditions: penicillinases (PC-type) of S. aureus (MSSA). The format is cell-based, Staphylococcus aureus. Here is the method:
as §1, §2, §3, §4, §5

Assay [24] deals with 55 laboratory strains producing characterized β-lactamases. The assay is described as follows: MIC, whole panel of Example 5 (Tables 5-7). Particulars: LK-157 as single agent against the tested strains. Format: cell-based. As to the method: The MIC experiments were performed in duplicate in 96-well microtiter plates using CAMHB. Serial twofold dilutions of each antibiotic either alone or in combination with constant concentration ratio of a β-lactamase inhibitor (2:1) were prepared in CAMHB. The bacterial suspension with final inoculum 10^5 CFU/mL was transferred to the test medium containing the antibacterial substances. In each well of a 96-well microtiter plate was combined 50 μL of bacterial inoculum, 50 μL of antibiotic dilutions (or media for determination of the MIC of the antibiotic in the absence of test compound). Each plate included 4 wells with no bacterial inoculum (negative control) and 4 wells with no test compound and no antibiotic (positive control). The plates were incubated at 35° C. for 24 h. Purity check and colony counts on each inoculum suspension was performed to ensure that the final inoculum concentration routinely obtained closely approximates 5×10^5 CFU/mL. In addition the assay is routinely monitored by testing standard antibiotics and ensuring that MIC values are within the recommended ranges for the respective strains.
This test permits comparisons to be made between bacterial growth in the presence of antibiotic alone and bacterial growth in the presence of both an antibiotic and a novel (test) compound.

Assay [25] has as its target AmpC (Enterobacter cloacae, UniProt P05364). Format: biochemical, Enterobacter Cloaca. Conditions: Class C β-lactamase; 10 min pre-incubation at 37° C., nitrocefin. Here is the method:
as §7, §8, §9

Sequence of SHV-1 (P0AD63 22-286): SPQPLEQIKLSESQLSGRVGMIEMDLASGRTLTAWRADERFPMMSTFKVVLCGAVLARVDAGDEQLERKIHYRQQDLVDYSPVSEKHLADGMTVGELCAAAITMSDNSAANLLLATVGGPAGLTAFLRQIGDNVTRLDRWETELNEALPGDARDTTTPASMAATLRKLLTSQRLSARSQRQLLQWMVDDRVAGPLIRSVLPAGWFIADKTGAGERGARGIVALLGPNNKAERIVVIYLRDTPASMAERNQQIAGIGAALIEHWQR
Sequence of AmpC (P05364 21-381): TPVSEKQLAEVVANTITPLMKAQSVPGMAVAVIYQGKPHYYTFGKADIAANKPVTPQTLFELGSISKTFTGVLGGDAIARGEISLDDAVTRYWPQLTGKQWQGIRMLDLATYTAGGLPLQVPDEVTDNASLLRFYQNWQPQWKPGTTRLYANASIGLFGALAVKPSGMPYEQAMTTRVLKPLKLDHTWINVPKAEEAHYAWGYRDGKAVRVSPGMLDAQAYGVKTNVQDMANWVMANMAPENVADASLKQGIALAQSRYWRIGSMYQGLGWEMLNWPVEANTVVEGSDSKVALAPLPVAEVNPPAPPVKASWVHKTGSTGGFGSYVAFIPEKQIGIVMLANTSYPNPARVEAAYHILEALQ
Sequence of TEM-1 (P62593 24-286 limits assumed): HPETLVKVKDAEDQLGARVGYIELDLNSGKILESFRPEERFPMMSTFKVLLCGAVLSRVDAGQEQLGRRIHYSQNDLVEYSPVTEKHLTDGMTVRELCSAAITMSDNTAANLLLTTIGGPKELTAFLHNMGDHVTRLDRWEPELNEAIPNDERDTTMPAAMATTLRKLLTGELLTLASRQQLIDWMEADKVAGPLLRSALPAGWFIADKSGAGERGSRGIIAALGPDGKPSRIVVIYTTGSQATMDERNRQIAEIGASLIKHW

For the compound `CCN1CCN(C(=O)N[C@@H](C(=O)N[C@@H]2C(=O)N3[C@@H]2SC(C)(C)[C@@H]3C(=O)O)c2ccccc2)C(=O)C1=O` [PIP, piperacillin], the MIC in assay [1] was 1.6 µg/mL; in [2], > 25.6 µg/mL; in [3], > 25.6 µg/mL; in assay [4], 0.8 µg/mL; in [5], 3.2 µg/mL; in assay [6], > 25.6 µg/mL. In addition, the minimal inhibitory concentration (MIC) in assay [7] and in [8] was > 25.6 µg/mL in each case.

For `CO/N=C(\C(=O)N[C@@H]1C(=O)N2C(C(=O)O)=C(CSc3nc(=O)c(=O)[nH]n3C)CS[C@H]12)c1csc(N)n1` [ceftriaxone], the MIC in assay [9] was 3.2 µg/mL; in assay [10], 6.4 µg/mL; in assay [11], 2 to 8 µg/mL (≈ 3.61 to 14.4 µM); in assay [12] it was > 25.6 µg/mL; in assay [13] it was 25.6 µg/mL; in assay [15], > 25.6 µg/mL. Also, the minimum inhibitory concentration (MIC) in assay [16] was > 25.6 µg/mL; in assay [17], “≦0.025”; in assay [18] (first listed), > 25.6 µg/mL; in [18] (second listed), > 25.6 µg/mL; in [18] (third listed), > 25.6 µg/mL. Besides, in [14], the “susceptibility of the strain to the antibiotic” value is “susceptible”.

Regarding `C[C@H]1[C@H](NC(=O)/C(=N\OC(C)(C)C(=O)O)c2csc(N)n2)C(=O)N1S(=O)(=O)O` [Aztreonam, aztreonam], the minimum inhibitory concentration (MIC) in assay [9] was 0.4 µg/mL; in [10], > 25.6 µg/mL; in assay [12] it was 12.8 µg/mL (≈ 29.4 µM); in assay [15], > 25.6 µg/mL; in [16], > 25.6 µg/mL; in assay [17] it was 0.1 µg/mL (≈ 0.23 µM). The results for the MIC in assay [18] (first listed), in [18] (second listed) and in [18] (third listed) were 25.6 µg/mL, > 25.6 µg/mL and 12.8 µg/mL, respectively.

`CO/N=C(\C(=O)N[C@@H]1C(=O)N2C(C(=O)[O-])=C(C[n+]3cccc4c3CCC4)CS[C@H]12)c1csc(N)n1` [Cefpirome, cefpirome]: the minimal inhibitory concentration (MIC) in [9] is 0.8 µg/mL; in [10] it was 0.8 µg/mL; in assay [12] it was 25.6 µg/mL (≈ 49.7 µM); in assay [15], 1.6 µg/mL; in assay [16] it was > 25.6 µg/mL; in [17] it was “≦0.025”. Besides, the MIC is 6.4 µg/mL in assay [18] (first listed), 3.2 µg/mL in assay [18] (second listed) and 3.2 µg/mL in [18] (third listed).

Take `C/C=C1/C(=O)N2C(C(=O)O)=C3[C@@H](OC)CCC[C@@H]3[C@H]12` [Compound 1a, (4S,8S,9R)-4-methoxy-10-((E)-ethylidene)-11-oxo-1-azatricyclo[7.2.0.0^3,8]undec-2-ene-2-carboxylic acid]: the “activity compared with other β-lactamase inhibitors” value in [19] and in [23] was “more active than the other tested β-lactamase inhibitors” throughout. Also, in assay [20], the “activity compared with tazobactam” value is reported as “superior to tazobactam”. Besides, the IC50 in assay [21] amounted to 0.151 µM; in [22], 0.055 µM; in assay [25] it was 0.062 µM. Also, in [24], the “antibiotic activity per se” value was “did not display antibiotic activity per se”.
